Earlier results as cited in article PMC11956011, “An Amazing 30-Year Journey around the DABO Family: A Medicinal Chemistry Lesson on a Versatile Class of Non-nucleoside HIV-1 Reverse Transcriptase Inhibitors” (Journal of Medicinal Chemistry, 2025).
Read-outs that look alike come from different tables or passages of the source.

How the values were obtained:
[1] = system: HIV-1 RT (WT, recombinant); conditions: for IC50: read-out: IC50 (HIV-1 RT)
HIV-1 = conditions: for IC50: read-out: IC50 (HIV-1 cytopathic effect in cells)
[2] = system: K103N HIV-1 mutant strain; conditions: for Fold-resistance K103N (EC50): Fig 10, in brackets
[3] = system: Y181C HIV-1 mutant strain; conditions: for Fold-resistance Y181C (EC50): Fig 10, in brackets
[4] = system: Y188L HIV-1 mutant strain; conditions: for Fold-resistance Y188L (EC50): Fig 10, in brackets
L100I HIV-1 RT = conditions: for Fold-resistance L100I RT (ID50): Fig 10, in brackets
Y181I HIV-1 RT = conditions: for ID50: Y181I: Fig 10; for Fold-resistance Y181I RT (ID50): Fig 10, in brackets
[5] = Fig 5, read-out: EC50: NL4-3 wt
[6] = Fig 10, read-out: EC50: NL4-3 wt
[7] = read-out: EC50 against WT HIV-1

2-(cyclopentylthio)-6-[(1R)-1-(2,6-difluorophenyl)ethyl]-5-methyl-4(3H)-pyrimidinone [[+]-38]
IC50 ([1]; Fig 5, printed without unit): 8 nM | EC50 (HIV-1): 2 nM | SI (HIV-1): > 100000 | CC50 (mock-infected cells; Fig 5): > 200000 nM

CCOCn1c(Cc2ccccc2)c(C(C)C)c(=O)[nH]c1=O [Emivirine, reference compound]
EC50 (HIV-1; Fig 4): 4.2 nM | SI (HIV-1; Fig 4): 44000 | CC50 (mock-infected cells): 186000 nM

Cc1cccc(Cc2cc(=O)[nH]c(OC3CCCCC3)n2)c1 [compound 6]
SI (HIV-1; CC50/EC50, Fig 3): > 400

CCC(C)Oc1nc(Cc2cc(C)cc(C)c2)c(C)c(=O)[nH]1 (centres unmarked) [compound 7]
SI (HIV-1; CC50/EC50, Fig 3): > 400

Nc1cc(Cl)nc(Sc2ccccc2)n1 [compound 20]
EC50 (HIV-1; Fig 4): 90000 nM | SI (HIV-1; Fig 4): 2.3

CCC(C)Oc1nc(N)cc(S(=O)(=O)c2cccc(C)c2)n1 (centres unmarked) [compound 22]
SI (HIV-1; Fig 4): > 43 | CC50 (mock-infected cells; Fig 4): > 200000 nM

CCOC1CSc2nc(=O)c(CC)c(Cc3cc(C)cc(C)c3)n21 (centres unmarked) [compound 24]
SI (HIV-1; CD50/ED50, Fig 4): > 140 | ED50 (HIV-1; Fig 4): 700 nM | CD50 (mock-infected cells; Fig 4): > 100 µM

Nc1nc2c(c(=O)[nH]1)CCC2c1ccccc1 (centres unmarked) [compound 27, 2-amino-7-phenyl-6,7-dihydro-5H-cyclopenta[d]-4(3H)-pyrimidinone]
anti-HIV-1 activity (in words) (HIV-1): lacked anti-HIV-1 activity

CCC(C)Sc1nc(O)cc(Cc2c(Cl)cccc2Cl)n1 (centres unmarked) [compound 28]
IC50 ([1]; Fig 5): 100 nM | SI (HIV-1; Fig 5): > 1428 | CC50 (mock-infected cells; Fig 5): > 200000 nM

CCC(C)Sc1nc(O)c(C)c(Cc2c(Cl)cccc2Cl)n1 (centres unmarked) [compound 29]
IC50 ([1]; Fig 5): 60 nM | SI (HIV-1; Fig 5): > 4000 | CC50 (mock-infected cells; Fig 5): > 200000 nM

CCC(C)Sc1nc(O)cc(Cc2c(F)cccc2F)n1 (centres unmarked) [compound 31]
IC50 ([1]; Fig 5): 50 nM | SI (HIV-1; Fig 5): > 5000 | CC50 (mock-infected cells; Fig 5): > 200000 nM

CCC(C)Sc1nc(O)cc(C(C)c2c(F)cccc2F)n1 (centres unmarked) [compound 34]
SI (HIV-1; Fig 5): > 6666 | EC50 (HIV-1; Fig 5, MT-4 cells): 30 nM | CC50 (mock-infected cells; Fig 5): > 200000 nM

CCCCSc1nc(O)c(C)c(C(C)c2c(F)cccc2F)n1 (centres unmarked) [compound 37]
EC50 (HIV-1; Fig 5, MT-4 cells): 8 nM

CCCCSc1nc(C(C)c2c(F)cccc2Cl)cc(=O)[nH]1 (centres unmarked) [compound 39]
EC50 (HIV-1 NL4-3 wt; [5]): 0.3 nM | EC50 ([2]; Fig 5): 1100 nM | EC50 ([3]; Fig 5): 3900 nM | EC50 ([4]; Fig 5): 5600 nM | ID50: WT ([1]; Fig 5): 10 nM | ID50: L100I (L100I HIV-1 RT; Fig 5): 600 nM | CC50 (mock-infected cells; Fig 5): > 73000 nM

CC(c1cc(=O)[nH]c(SC2CCCC2)n1)c1c(F)cccc1Cl (centres unmarked) [compound 40]
EC50 (HIV-1 NL4-3 wt; [5]): 0.3 nM | EC50 ([2]; Fig 5): 900 nM | EC50 ([3]; Fig 5): 3000 nM | EC50 ([4]; Fig 5): > 71000 nM | ID50: WT ([1]; Fig 5): 15 nM | ID50: L100I (L100I HIV-1 RT; Fig 5): 1100 nM | CC50 (mock-infected cells; Fig 5): > 71000 nM

Cc1c(C(C)c2c(F)cccc2Cl)nc(SC(C)C)[nH]c1=O (centres unmarked) [compound 41]
EC50 ([2]; Fig 5): 140 nM | EC50 ([3]; Fig 5): 250 nM | EC50 ([4]; Fig 5): 3400 nM | CC50 (mock-infected cells; Fig 5): > 15000 nM

CCCSc1nc(C(C)c2c(F)cccc2Cl)c(C)c(=O)[nH]1 (centres unmarked) [compound 42]
EC50 (HIV-1 NL4-3 wt; [5]): 0.05 nM | EC50 ([2]; Fig 5): 350 nM | EC50 ([3]; Fig 5): 260 nM | EC50 ([4]; Fig 5): > 1500 nM | ID50: WT ([1]; Fig 5): 0.9 nM | ID50: L100I (L100I HIV-1 RT; Fig 5): 90 nM | CC50 (mock-infected cells; Fig 5): > 1500 nM

Cc1c(C(C)c2c(F)cccc2Cl)nc(SC2CCCC2)[nH]c1=O (centres unmarked) [compound 43]
EC50 (HIV-1 NL4-3 wt; [5]): 0.03 nM | EC50 ([2]; Fig 5): 93 nM | EC50 ([3]; Fig 5): 230 nM | EC50 ([4]; Fig 5): 2900 nM | ID50: WT ([1]; Fig 5): 11 nM | ID50: L100I (L100I HIV-1 RT; Fig 5): 120 nM | CC50 (mock-infected cells; Fig 5): > 15000 nM

Cc1cc(=O)[nH]c(SCCN2C(=O)c3ccccc3C2=O)n1 [compound 74]
SI (HIV-1; Fig 9): 61.6

O=C1c2ccccc2C(=O)N1CCSc1nc(Cc2c(F)cccc2F)cc(=O)[nH]1 [compound 75]
EC50 (HIV-1; Fig 9): 17000 nM | SI (HIV-1; Fig 9): > 5.9 | CC50 (mock-infected cells; Fig 9): > 100000 nM

CCc1c(Cc2ccccc2Br)nc(SCc2ccc(OC)cc2)[nH]c1=O [compound 87]
SI (HIV-1; Fig 9): 717 | IC50 (HIV-1; Fig 9): 230 nM | CC50 (mock-infected cells; Fig 9): 165000 nM

CCc1c(Cc2ccccc2Br)nc(SCc2ccc([N+](=O)[O-])cc2)[nH]c1=O [compound 88]
SI (HIV-1; Fig 9): > 368 | IC50 (HIV-1; Fig 9): 740 nM | CC50 (mock-infected cells; Fig 9): > 272000 nM

CCc1c(Cc2cccc(Br)c2)nc(SCc2ccc(OC)cc2)[nH]c1=O [compound 89]
SI (HIV-1; Fig 9): 718 | IC50 (HIV-1; Fig 9): 280 nM | CC50 (mock-infected cells; Fig 9): 201000 nM

CCc1c(Cc2cc(C)cc(C)c2)nc(SCc2ccc(OC)cc2)[nH]c1=O [compound 90]
SI (HIV-1; Fig 9): > 2642 | IC50 (HIV-1; Fig 9): 120 nM | CC50 (mock-infected cells; Fig 9): > 317000 nM

CCc1c(Cc2cc(C)cc(C)c2)nc(SCc2ccc([N+](=O)[O-])cc2)[nH]c1=O [compound 91]
SI (HIV-1; Fig 9): > 1906 | IC50 (HIV-1; Fig 9): 160 nM | CC50 (mock-infected cells; Fig 9): > 305000 nM

CC(=O)c1ccc(Cn2cc(CSc3nc(Cc4c(Cl)cccc4Cl)c(C)c(=O)[nH]3)nn2)cc1 [compound 92]
EC50 (HIV-1; Fig 9): 3860 nM | SI (HIV-1; Fig 9): 8

Cc1c(Cc2c(Cl)cccc2Cl)nc(SCc2cn(Cc3ccc(S(N)(=O)=O)cc3)nn2)[nH]c1=O [compound 93]
EC50 (HIV-1; Fig 9): 3220 nM | SI (HIV-1; Fig 9): 30

COc1ccc(Cn2cc(CSc3nc(Cc4c(Cl)cccc4Cl)c(C)c(=O)[nH]3)nn2)cc1 [compound 94]
SI (HIV-1; Fig 9): 6

CCc1c(Cc2c(Cl)cccc2Cl)nc(SCC(=O)c2ccccc2)[nH]c1=O [compound 101]
EC50 (HIV-1 NL4-3 wt; [6]): 7 nM | EC50 ([2]; Fig 10): 1200 nM | Fold-resistance K103N (EC50) [2]: 171 | EC50 ([3]; Fig 10): 46 nM | Fold-resistance Y181C (EC50) [3]: 7 | EC50 ([4]; Fig 10): 5000 nM | Fold-resistance Y188L (EC50) [4]: 714 | ID50: WT ([1]; Fig 10): 71 nM | ID50: Y181I (Y181I HIV-1 RT): 330 nM | Fold-resistance Y181I RT (ID50) (Y181I HIV-1 RT): 5 | ID50: L100I (L100I HIV-1 RT; Fig 10): 3540 nM | Fold-resistance L100I RT (ID50) (L100I HIV-1 RT): 50 | SI (HIV-1; Fig 10): > 7429 | CC50 (mock-infected cells; Fig 10): > 52000 nM

CC(C)c1c(Cc2c(Cl)cccc2Cl)nc(SCC(=O)c2ccccc2)[nH]c1=O [compound 102]
EC50 (HIV-1 NL4-3 wt; [6]): 4 nM | EC50 ([2]; Fig 10): 5100 nM | Fold-resistance K103N (EC50) [2]: 1275 | EC50 ([3]; Fig 10): 110 nM | Fold-resistance Y181C (EC50) [3]: 27 | EC50 ([4]; Fig 10): 5500 nM | Fold-resistance Y188L (EC50) [4]: 1375 | ID50: WT ([1]; Fig 10): 31 nM | ID50: Y181I (Y181I HIV-1 RT): 16800 nM | Fold-resistance Y181I RT (ID50) (Y181I HIV-1 RT): 542 | ID50: L100I (L100I HIV-1 RT; Fig 10): 10100 nM | Fold-resistance L100I RT (ID50) (L100I HIV-1 RT): 326 | SI (HIV-1; Fig 10): > 14000 | CC50 (mock-infected cells; Fig 10): > 56000 nM

Cc1c(Cc2c(Cl)cccc2Cl)nc(SCC(=O)Nc2ccc(Cl)cc2)[nH]c1=O [compound 105]
SI (HIV-1; Fig 10): > 836 | CC50 (mock-infected cells; Fig 10): > 267000 nM

Cc1c(Cc2c(Cl)cccc2Cl)nc(SCC(=O)Nc2ccc(Br)cc2)[nH]c1=O [compound 106]
SI (HIV-1; Fig 10): > 1326 | CC50 (mock-infected cells; Fig 10): > 244000 nM

Cc1c(Cc2c(Cl)cccc2Cl)nc(SCC(=O)Nc2ccc(F)c(F)c2)[nH]c1=O [compound 108]
SI (HIV-1; Fig 10): > 387 | CC50 (mock-infected cells; Fig 10): > 266000 nM

COc1ccc(CSc2nc(C(C)c3c(F)cccc3F)c(C)c(=O)[nH]2)cc1 (centres unmarked) [compound 140, 6-[1-(2,6-difluorophenyl)ethyl]-2-[(4-methoxybenzyl)thio]-5-methyl-4(3H)-pyrimidinone]
EC50 (HIV-1 NL4-3 wt; [7]): 0.025 nM

Cc1c(C(C)c2c(F)cccc2F)nc(SCc2ccc(C#N)cc2)[nH]c1=O (centres unmarked) [compound 141]
EC50 (HIV-1 NL4-3 wt; [7]): 7.8 nM

Cc1c(C(C)c2c(F)cccc2F)nc(SCc2ccc([N+](=O)[O-])cc2)[nH]c1=O (centres unmarked) [compound 142]
EC50 (HIV-1 NL4-3 wt; [7]): 3.3 nM

COc1cc(F)c(C(=O)c2ccnc(Nc3ccc(C#N)cc3)n2)c(F)c1 [compound 169]
EC50: Y181C ([3]; Fig 12, DAPY-DABO carbonyl hybrids): no activity

CCN(CC)CCc1cc(=O)[nH]c(SC)n1 [compound 184]
CC50 (mock-infected cells): 250 µg/mL
